Measured values as given in patent publication US20230274811A1, “METHODS OF MAKING PROSTATE CANCER TREATMENT DECISIONS” (Progenics Pharmaceuticals, Inc., priority 2020, published 2023).

Test system: biochemically recurrent prostate cancer
Test: CONDOR: 18F-DCFPyL PET/CT correct localization rate, detection rate and PPV vs composite standard of truth
Format: in vivo, men
Excerpt: 1. Correct Localization Rate (CLR), defined as percentage of subjects with a one-to-one correspondence between localization of at least one lesion identified on ^18F-DCFPyL PET/CT imaging and the composite truth standard, defined as either evaluable histopathology, informative correlative imaging, or PSA response after radiation therapy.
Men ≥18 years of age with a rising PSA after definitive PCa therapy and negative or equivocal imaging were enrolled. […] The primary endpoint of this study was the correct localization rate (CLR). CLR is defined as the percentage of patients with a one-to-one correspondence between localization of at least one lesion identified by ^18F-DCFPyL PET/CT and a composite standard of truth (SOT). SOT was determined by two central readers and included either histopathology or another standard imaging modality (i.e., fluciclovine-PET/CT, CT/MRI, bone scan) or alternatively, by a post-treatment PSA change for irradiated lesions.
Methods: Men ≥18 years—with rising PSA after definitive therapy and negative or equivocal standard of care imaging (e.g., CT/MRI, bone scintigraphy) were enrolled. A single 9 mCi (333 MBq)±20% dose of PyL was injected, followed by PET/CT 1-2 hours later. Primary endpoint was correct localization rate (CLR), defined as percentage of pts with a 1:1 correspondence between at least one lesion identified by PyL-PET/CT and the composite standard of truth: pathology, correlative imaging, or PSA response. […] The secondary endpoint, impact of PyL-PET/CT on clinical management of pts was based on the treating physician's documented clinical plans before and after PyL-PET/CT.
Men with a PSA ≥0.2 ng/mL after surgery or ≥2 ng/mL above the nadir after radiation therapy were eligible for enrollment. The primary endpoint was the correct localization rate (CLR) defined as positive predictive value with an additional requirement of anatomical lesion colocalization between ^18F-DCFPyL-PET/CT and a composite standard of truth (SOT). The SOT consisted of, in descending priority: 1) histopathology, 2) correlative imaging findings determined by two central readers, or 3) post-radiation PSA response. […] The impact of ^18F-DCFPyL-PET/CT as defined by change in management intent, and safety were evaluated as secondary endpoints.
Patients voided prior to imaging, and PET and non-contrast CT images were acquired from the mid-thigh through the skull vertex. All ^18F-DCFPyL-PET/CT scans were submitted to the central imaging core laboratory for assessment. Patients with positive ^18F-DCFPyL-PET/CT scans based on local interpretation were scheduled for post-^18F-DCFPyL-PET/CT follow-up to verify suspected lesion(s) based on a composite standard of truth (SOT). (FIG. 16)
Because of the expected absence of an amenable lesion for histologic verification in all patients, a composite SOT was employed based on assessment performed or initiated within 60 days following ^18F-DCFPyL-PET/CT. These reference standards were defined (in descending priority) as (1) evaluable histopathology results from prostatectomy, salvage pelvic lymph node dissection or biopsy; (2) imaging findings using ^18F-fluciclovine or ^11C-choline PET, or focused MRI or CT; or (3) if neither of the above was available or informative, confirmed PSA response up to 9 months post-radiation initiation (with no concomitant ADT) of all PET-positive foci. PSA response was defined as PSA decline by ≥50% from baseline that was confirmed on repeat measurement within 4 weeks, based on central laboratory results.
A central imaging core laboratory was employed to independently manage image handling, reader training, reader sessions and data collection. […] The readers had no access to any clinical information, including PSA values or other imaging available for a patient. […]

[1] = SOT Correlative imaging n=100, Reader 1
[2] = SOT Correlative imaging n=100, Reader 2

O=C(O)CC[C@H](NC(=O)N[C@@H](CCCCNC(=O)c1ccc([18F])nc1)C(=O)O)C(=O)O [18F-DCFPyL, 2-(3-{1-carboxy-5-[(6-[^18F]fluoro-pyridine-3-carbonyl)-amino]-pentyl}ureido)-pentanedioic acid]
pts with PSMA-avid lesion(s), local radiology assessment (142/208): 69.3% | PPV by anatomic region (Extra-pelvic, Reader 1 (CONDOR Reader 4 in Table 17)): 33 (67.3) % | PPV by anatomic region (Extra-pelvic, Reader 1 (CONDOR Reader 4 in Table 17), listed as PyLARIFY): 67% | PPV by anatomic region (Extra-pelvic, Reader 2 (CONDOR Reader 5 in Table 17)): 31 (67.4) % | PPV by anatomic region (Extra-pelvic, Reader 2 (CONDOR Reader 5 in Table 17), listed as PyLARIFY): 67% | PPV by anatomic region (Extra-pelvic, Reader 3 (CONDOR Reader 6 in Table 17)): 30 (69.8) % | PPV by anatomic region (Extra-pelvic, Reader 3 (CONDOR Reader 6 in Table 17), listed as PyLARIFY): 70% | CLR by baseline PSA (PSA 0.5-<1.0 ng/mL, Reader 1): 12 (75.0) % | Detection rate by baseline PSA (PSA 0.5-<1.0 ng/mL, Reader 1): 21 (56.8) % | CLR by baseline PSA (PSA 0.5-<1.0 ng/mL, Reader 2): 10 (76.9) % | Detection rate by baseline PSA (PSA 0.5-<1.0 ng/mL, Reader 2): 45.9% | CLR by baseline PSA (PSA 0.5-<1.0 ng/mL, Reader 3): 11 (73.3) % | Detection rate by baseline PSA (PSA 0.5-<1.0 ng/mL, Reader 3): 19 (51.4) % | CLR by baseline PSA (PSA 1.0-<2.0 ng/mL, Reader 1): 17 (85.0) % | Detection rate by baseline PSA (PSA 1.0-<2.0 ng/mL, Reader 1): 24 (72.7) % | CLR by baseline PSA (PSA 1.0-<2.0 ng/mL, Reader 2): 14 (77.8) % | Detection rate by baseline PSA (PSA 1.0-<2.0 ng/mL, Reader 2): 22 (66.7) % | CLR by baseline PSA (PSA 1.0-<2.0 ng/mL, Reader 3): 15 (83.3) % | Detection rate by baseline PSA (PSA 1.0-<2.0 ng/mL, Reader 3): 19 (57.6) % | CLR by baseline PSA (PSA 2.0 < 5.0 ng/mL, Reader 1): 21 (91.3) % | Detection rate by baseline PSA (PSA 2.0 < 5.0 ng/mL, Reader 1): 28 (84.8) % | CLR by baseline PSA (PSA 2.0 < 5.0 ng/mL, Reader 2): 24 (92.3) % | Detection rate by baseline PSA (PSA 2.0 < 5.0 ng/mL, Reader 2): 29 (87.9) % | CLR by baseline PSA (PSA 2.0 < 5.0 ng/mL, Reader 3): 20 (90.9) % | Detection rate by baseline PSA (PSA 2.0 < 5.0 ng/mL, Reader 3): 27 (81.8) % | CLR by baseline PSA (PSA <0.5 ng/mL, Reader 1): 11 (73.3) % | Detection rate by baseline PSA (PSA <0.5 ng/mL, Reader 1): 29 (42.0) % | CLR by baseline PSA (PSA <0.5 ng/mL, Reader 2): 76.9% | Detection rate by baseline PSA (PSA <0.5 ng/mL, Reader 2): 23 (33.3) % | CLR by baseline PSA (PSA <0.5 ng/mL, Reader 3): 11 (73.3) % | Detection rate by baseline PSA (PSA <0.5 ng/mL, Reader 3): 25 (36.2) % | CLR by baseline PSA (PSA ≥5 ng/mL, Reader 1): 27 (96.4) % | Detection rate by baseline PSA (PSA ≥5 ng/mL, Reader 1): 29 (96.7) % | CLR by baseline PSA (PSA ≥5 ng/mL, Reader 2): 28 (96.6) % | Detection rate by baseline PSA (PSA ≥5 ng/mL, Reader 2): 29 (96.7) % | CLR by baseline PSA (PSA ≥5 ng/mL, Reader 3): 26 (96.3) % | Detection rate by baseline PSA (PSA ≥5 ng/mL, Reader 3): 27 (90.0) % | PPV by anatomic region (Pelvic, Reader 1 (CONDOR Reader 4 in Table 17)): 41 (67.2) % | PPV by anatomic region (Pelvic, Reader 1 (CONDOR Reader 4 in Table 17), listed as PyLARIFY): 67% | PPV by anatomic region (Pelvic, Reader 2 (CONDOR Reader 5 in Table 17)): 40 (72.7) % | PPV by anatomic region (Pelvic, Reader 2 (CONDOR Reader 5 in Table 17), listed as PyLARIFY): 73% | PPV by anatomic region (Pelvic, Reader 3 (CONDOR Reader 6 in Table 17)): 39 (70.9) % | PPV by anatomic region (Pelvic, Reader 3 (CONDOR Reader 6 in Table 17), listed as PyLARIFY): 71% | PPV by anatomic region (Prostatic (prostate bed), Reader 1 (CONDOR Reader 4 in Table 17), listed as PyLARIFY): 80% | PPV by anatomic region (Prostatic (prostate bed), Reader 2 (CONDOR Reader 5 in Table 17)): 30 (83.3) % | PPV by anatomic region (Prostatic (prostate bed), Reader 2 (CONDOR Reader 5 in Table 17), listed as PyLARIFY): 83% | PPV by anatomic region (Prostatic (prostate bed), Reader 3 (CONDOR Reader 6 in Table 17)): 27 (75.0) % | PPV by anatomic region (Prostatic (prostate bed), Reader 3 (CONDOR Reader 6 in Table 17), listed as PyLARIFY): 75% | CLR (TP/TP + FP) (SOT CT n=6, Reader 1): (80.0%) | Negative PyL Scan (SOT CT n=6, Reader 1): (16.7%) | Positive PyL Scan (SOT CT n=6, Reader 1): (83.3%) | CLR (TP/TP + FP) (SOT CT n=6, Reader 2): (100.0%) | Negative PyL Scan (SOT CT n=6, Reader 2): (16.7%) | Positive PyL Scan (SOT CT n=6, Reader 2): (83.3%) | CLR (TP/TP + FP) (SOT CT n=6, Reader 3): (80.0%) | Negative PyL Scan (SOT CT n=6, Reader 3): (16.7%) | Positive PyL Scan (SOT CT n=6, Reader 3): (83.3%) | CLR (TP/TP + FP) [1]: (88.0%) | Negative PyL Scan [1]: (18.0%) | PPV (TP/TP + FP) [1]: (89.0%) | Positive PyL Scan [1]: (82.0%) | CLR (TP/TP + FP) [2]: (88.6%) | Negative PyL Scan [2]: (24.0%) | PPV (TP/TP + FP) [2]: (89.5%) | Positive PyL Scan [2]: (76.0%)
